# Measurements: PubChem BioAssay AID702 (NMMLSC, 2007)
# Results filed as inconclusive are left out. Activity calls are given as the source filed them. No rule for the calls is given here.
# Target: Integrin alpha-4 (Homo sapiens) (UniProt P13612)
# Test: inhibition of LDV ligand binding to VLA-4 – cell-based, LDV-FITC binding, flow cytometry, dose response (AID 702)
# Chain of Integrin alpha-4 (Homo sapiens) (P13612 whole entry, looked up): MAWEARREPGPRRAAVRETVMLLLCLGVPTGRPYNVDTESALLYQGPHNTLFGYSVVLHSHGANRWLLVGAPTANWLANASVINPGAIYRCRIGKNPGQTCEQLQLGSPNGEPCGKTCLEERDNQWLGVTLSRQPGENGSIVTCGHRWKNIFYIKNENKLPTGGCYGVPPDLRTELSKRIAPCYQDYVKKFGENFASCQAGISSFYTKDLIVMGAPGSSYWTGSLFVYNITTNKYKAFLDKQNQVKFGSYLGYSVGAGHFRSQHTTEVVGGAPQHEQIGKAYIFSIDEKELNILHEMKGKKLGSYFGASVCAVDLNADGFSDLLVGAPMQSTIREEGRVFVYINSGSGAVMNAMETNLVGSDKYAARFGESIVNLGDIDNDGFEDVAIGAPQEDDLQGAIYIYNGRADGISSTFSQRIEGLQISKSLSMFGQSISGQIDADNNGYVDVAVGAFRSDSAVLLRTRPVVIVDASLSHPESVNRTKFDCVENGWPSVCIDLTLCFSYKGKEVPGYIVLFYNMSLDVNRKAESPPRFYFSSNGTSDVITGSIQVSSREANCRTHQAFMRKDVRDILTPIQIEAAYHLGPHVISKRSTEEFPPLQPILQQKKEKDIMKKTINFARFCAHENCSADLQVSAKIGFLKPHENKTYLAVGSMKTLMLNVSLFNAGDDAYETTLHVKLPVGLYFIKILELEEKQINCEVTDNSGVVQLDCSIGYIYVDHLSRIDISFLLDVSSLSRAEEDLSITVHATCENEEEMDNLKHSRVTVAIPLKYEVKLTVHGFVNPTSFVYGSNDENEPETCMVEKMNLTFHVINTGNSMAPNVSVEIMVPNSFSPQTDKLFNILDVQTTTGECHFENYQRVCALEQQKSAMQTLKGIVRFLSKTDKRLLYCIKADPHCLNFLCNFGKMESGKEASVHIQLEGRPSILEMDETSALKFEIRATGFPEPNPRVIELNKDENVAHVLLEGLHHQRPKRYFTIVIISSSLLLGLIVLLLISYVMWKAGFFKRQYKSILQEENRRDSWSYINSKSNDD
SMILES,outcome,EC50 [µM]
CCCCC1(C(=O)O)C(=O)N(c2ccccc2)N(c2ccccc2)C1=O,inactive,–
CCCCC1C(=O)N(c2ccccc2)N(c2ccccc2)C1=O,–,1.06
CCOc1cc2[nH]c(=O)n(CCC(=O)NCCOC)c(=O)c2cc1OCC,inactive,–
CCOc1cc2[nH]c(=O)n(CCCC(=O)NCc3ccco3)c(=O)c2cc1OCC,inactive,–
O=C(Cn1nc(-c2ccc3c(c2)OCCO3)ccc1=O)Nc1ccc(N2CCOCC2)cc1,–,14.1
O=C(NCC12CC3CC(CC(C3)C1)C2)c1nn2c(c1Cl)NC(c1ccco1)CC2C(F)(F)F (stereo not given),inactive,–
COc1cccc2sc(Nc3nc(C)c(C(C)=O)s3)nc12,inactive,–
CCCCN1C(=O)N(c2ccccc2)C(CCCC)(c2ccccc2)C1=O (stereo not given),inactive,–
CCCCCNC(=O)CCCCn1c(=O)[nH]c2cc(OCC)c(OCC)cc2c1=O,–,4.6
Cc1onc(-c2ccccc2)c1C(=O)NC(CC(=O)O)c1ccc(OC(C)C)cc1 (stereo not given),–,6.5
CCOc1ccc(C(CC(=O)O)NC(=O)C23CC4CC(CC(C4)C2)C3)cc1 (stereo not given),–,0.09
Cc1cc(C)cc(-n2ccnc(SCC(=O)Nc3ccc(Cl)cc3F)c2=O)c1,–,52.6
CCCOc1ccc(C(CC(=O)O)NC(=O)C23CC4CC(CC(C4)C2)C3)cc1 (stereo not given),–,0.08
C=C(C)C1Cc2c(C)nn(-c3nc(C)cc(C)n3)c2C1 (stereo not given),–,45.1
O=C(O)CCCn1c(=O)[nH]c2cc3c(cc2c1=O)OCO3,inactive,–
CCOc1cc2[nH]c(=O)n(CCCCC(=O)NC3CCCCCC3)c(=O)c2cc1OCC,–,5.13

# Second part, the compound after the results:
outcome,EC50 [µM],SMILES
inactive,–,COc1cc(Cn2c(-c3nonc3N)nc3ccccc32)ccc1C
inactive,–,CCOc1cc2[nH]c(=O)n(CCCN3CCCC3=O)c(=O)c2cc1OCC
–,5.14,COc1cccc2sc(Nc3nnc(-c4ccccc4Cl)o3)nc12
inactive,–,CCCCN1C(=O)NC(c2ccccc2)C1=O (stereo not given)
–,2.34,CCOc1cc2[nH]c(=O)n(CC3CCC(C(=O)NCCC(C)C)CC3)c(=O)c2cc1OCC (stereo not given)
inactive,–,O=C1NC(=O)N(c2ccccc2)C1c1ccccc1 (stereo not given)
–,4.13,CC(C)Oc1ccc(C(CC(=O)O)NC(=O)C2CCCCC2)cc1 (stereo not given)
inactive,–,CCCCC1(O)C(=O)N(c2ccccc2)N(c2ccccc2)C1=O
inactive,–,CCCCN1C(=O)C(c2ccccc2)N(c2ccccc2)C1=O (stereo not given)
inactive,–,COc1cc2[nH]c(=O)n(CCC(=O)NCc3cccnc3)c(=O)c2cc1OC
inactive,–,Cn1c(=O)cc(SCC(=O)N2CCN(C3CCCCC3)CC2)c2ccccc21
inactive,–,CCOc1cc2[nH]c(=O)n(CCCC(=O)N3CCCC3)c(=O)c2cc1OCC
inactive,–,COc1cc2[nH]c(=O)n(CCC(=O)N3CCc4ccccc4C3)c(=O)c2cc1OC
–,17.3,O=C1C(CCS(=O)c2ccccc2)C(=O)N(c2ccccc2)N1c1ccccc1 (stereo not given)
–,31.8,Cc1oc2cc(O)ccc2c(=O)c1Oc1ccccc1Br
inactive,–,COc1cc2[nH]c3c(N4CCN(c5ccccn5)CC4)ncnc3c2cc1OC
inactive,–,O=C1NC(=O)C(c2ccccc2)N1 (stereo not given)
inactive,–,COc1ccccc1-c1nnc(Nc2nc3c(OC)cccc3s2)o1
–,20.2,N/C(=N/O)c1nc(N2CCCC2)nc(N(c2ccccc2)c2ccccc2)n1
inactive,–,CCOc1cc2[nH]c(=O)n(CCCCCC(=O)NCc3ccco3)c(=O)c2cc1OCC
inactive,–,CCCCC1(C)C(=O)N(c2ccccc2)N(c2ccccc2)C1=O
inactive,–,COc1cccc2sc(Nc3nc(-c4ccncc4)cs3)nc12
inactive,–,COc1cc2[nH]c(=O)n(CCCC(=O)N3CCOCC3)c(=O)c2cc1OC
–,4.27,CCOc1cc2[nH]c(=O)n(CC3CCC(C(=O)NC(C)CC)CC3)c(=O)c2cc1OCC (stereo not given)
